Test results as given in paper PMC5218480 (PLoS ONE, 2017).

Tested on: MV-4-11 cells
Experiment: Gene expression microarray analysis (Affymetrix PrimeView) and GSEA
Format: cell-based, human
Design: RFU PODN (11730768_x_at) / Fold change /veh PODN (11730768_x_at) / RFU LINC00158 (11744669_a_at) / Fold change /veh LINC00158 (11744669_a_at) / RFU DUSP10 (11751237_a_at) / Fold change /veh DUSP10 (11751237_a_at) / RFU ID3 (11757404_x_at) / Fold change /veh ID3 (11757404_x_at) / RFU PLEKHG5 (11737974_s_at) / Fold change /veh PLEKHG5 (11737974_s_at) / RFU LRRC4B (11730491_at) / Fold change /veh LRRC4B (11730491_at) / RFU GIMAP4 (11747438_a_at) / Fold change /veh GIMAP4 (11747438_a_at) / RFU KRT8 (11758183_x_at) / Fold change /veh KRT8 (11758183_x_at) / RFU CNN1 (11734310_a_at) / Fold change /veh CNN1 (11734310_a_at) / RFU VPS37D (11726825_at) / Fold change /veh VPS37D (11726825_at) / RFU C10orf10 (11716522_x_at) / Fold change /veh C10orf10 (11716522_x_at) / RFU KIR2DL2 /// KIR2DL4 /// KIR2DL5A /// KIR2DL5B /// KIR2DS1 /// KIR2DS2 /// KIR2DS3 /// KIR2DS4 /// KIR3DL3 /// KIR3DL3 /// KIR3DS1 (11738374_at) / Fold change /veh KIR2DL2 /// KIR2DL4 /// KIR2DL5A /// KIR2DL5B /// KIR2DS1 /// KIR2DS2 /// KIR2DS3 /// KIR2DS4 /// KIR3DL3 /// KIR3DL3 /// KIR3DS1 (11738374_at) / RFU C1QL1 (11718748_at) / Fold change /veh C1QL1 (11718748_at) / RFU TMPRSS4 (11747572_a_at) / Fold change /veh TMPRSS4 (11747572_a_at) / RFU HAMP (11756126_x_at) / Fold change /veh HAMP (11756126_x_at) / RFU RNFT2 (11725882_a_at) / Fold change /veh RNFT2 (11725882_a_at) / RFU NR4A2 (11747474_a_at) / Fold change /veh NR4A2 (11747474_a_at) / RFU ABCC12 (11746883_a_at) / Fold change /veh ABCC12 (11746883_a_at) / RFU TMEM136 (11760407_x_at) / Fold change /veh TMEM136 (11760407_x_at) / RFU CLDN22 /// WWC2 (11732394_at) / Fold change /veh CLDN22 /// WWC2 (11732394_at) / RFU HLA-DPB1 (11760878_x_at) / Fold change /veh HLA-DPB1 (11760878_x_at) / RFU SPINT1 (11716480_a_at) / Fold change /veh SPINT1 (11716480_a_at) / RFU GAP43 (11754022_s_at) / Fold change /veh GAP43 (11754022_s_at) / RFU A4GNT (11735810_at) / Fold change /veh A4GNT (11735810_at) / RFU PRB3 (11715151_x_at) / Fold change /veh PRB3 (11715151_x_at) / RFU TUBB4B (11761932_at) / Fold change /veh TUBB4B (11761932_at) / RFU CAPN14 (11732068_a_at) / Fold change /veh CAPN14 (11732068_a_at) / RFU TMCC2 (11721928_a_at) / Fold change /veh TMCC2 (11721928_a_at) / RFU IRGQ (11745062_a_at) / Fold change /veh IRGQ (11745062_a_at) / RFU FAM174B (11720279_a_at) / Fold change /veh FAM174B (11720279_a_at) / RFU TMPRSS4 (11748680_a_at) / Fold change /veh TMPRSS4 (11748680_a_at) / RFU FAM212B (11763350_a_at) / Fold change /veh FAM212B (11763350_a_at) / RFU PLEKHG5 (11743358_a_at) / Fold change /veh PLEKHG5 (11743358_a_at) / RFU ZSCAN30 (11745921_a_at) / Fold change /veh ZSCAN30 (11745921_a_at) / RFU CMKLR1 (11741424_a_at) / Fold change /veh CMKLR1 (11741424_a_at) / RFU LOC101060620 /// MAPK8IP1 (11723275_at) / Fold change /veh LOC101060620 /// MAPK8IP1 (11723275_at) / RFU SPTSSB (11747773_x_at) / Fold change /veh SPTSSB (11747773_x_at) / RFU PRSS12 (11739890_at) / Fold change /veh PRSS12 (11739890_at) / RFU BIN1 (11741810_x_at) / Fold change /veh BIN1 (11741810_x_at) / RFU WNT11 (11732464_a_at) / Fold change /veh WNT11 (11732464_a_at) / RFU C10orf10 (11716521_a_at) / Fold change /veh C10orf10 (11716521_a_at) / RFU C5orf56 (11738089_at) / Fold change /veh C5orf56 (11738089_at) / RFU CYB561 (11721691_x_at) / Fold change /veh CYB561 (11721691_x_at) / RFU ANKRD19P (11752326_a_at) / Fold change /veh ANKRD19P (11752326_a_at) / RFU OR2T12 /// OR2T33 /// OR2T8 (11738714_s_at) / Fold change /veh OR2T12 /// OR2T33 /// OR2T8 (11738714_s_at) / RFU VCAN (11748164_a_at) / Fold change /veh VCAN (11748164_a_at) / RFU JSRP1 (11732532_at) / Fold change /veh JSRP1 (11732532_at) / RFU KRTAP10-11 (11738290_x_at) / Fold change /veh KRTAP10-11 (11738290_x_at) / RFU MYO3A (11730013_a_at) / Fold change /veh MYO3A (11730013_a_at) / RFU EBF3 (11725865_a_at) / Fold change /veh EBF3 (11725865_a_at) / RFU CAMK2N1 (11719241_x_at) / Fold change /veh CAMK2N1 (11719241_x_at) / RFU C5orf56 (11738088_a_at) / Fold change /veh C5orf56 (11738088_a_at) / RFU OLFML3 (11715873_a_at) / Fold change /veh OLFML3 (11715873_a_at) / RFU LOC100653217 /// NTM (11731650_a_at) / Fold change /veh LOC100653217 /// NTM (11731650_a_at) / RFU MAPK11 (11762145_a_at) / Fold change /veh MAPK11 (11762145_a_at) / RFU FIZ1 (11724087_x_at) / Fold change /veh FIZ1 (11724087_x_at) / RFU OASL (11726364_x_at) / Fold change /veh OASL (11726364_x_at) / RFU SOX15 (11748057_x_at) / Fold change /veh SOX15 (11748057_x_at) / RFU CD79A (11719716_a_at) / Fold change /veh CD79A (11719716_a_at) / RFU HIST1H1D (11736915_at) / Fold change /veh HIST1H1D (11736915_at) / RFU CASKIN2 (11723855_a_at) / Fold change /veh CASKIN2 (11723855_a_at) / RFU LOC730098 (11760151_x_at) / Fold change /veh LOC730098 (11760151_x_at) / RFU OR4N2 (11742367_at) / Fold change /veh OR4N2 (11742367_at) / RFU PRRT2 (11749266_a_at) / Fold change /veh PRRT2 (11749266_a_at) / RFU SNX32 (11753110_a_at) / Fold change /veh SNX32 (11753110_a_at) / RFU CDHR5 (11726645_a_at) / Fold change /veh CDHR5 (11726645_a_at) / RFU RCAN1 (11760418_a_at) / Fold change /veh RCAN1 (11760418_a_at) / RFU FAM167A (11723789_a_at) / Fold change /veh FAM167A (11723789_a_at) / RFU FAM26E (11764081_at) / Fold change /veh FAM26E (11764081_at) / RFU ISYNA1 (11749810_s_at) / Fold change /veh ISYNA1 (11749810_s_at) / RFU ACY1 (11761880_at) / Fold change /veh ACY1 (11761880_at) / RFU 11764098_at / Fold change /veh 11764098_at / RFU SAMD14 (11745864_x_at) / Fold change /veh SAMD14 (11745864_x_at) / RFU NPB (11741838_a_at) / Fold change /veh NPB (11741838_a_at) / RFU TMPRSS6 (11731388_a_at) / Fold change /veh TMPRSS6 (11731388_a_at) / RFU KRTAP10-2 (11738614_at) / Fold change /veh KRTAP10-2 (11738614_at) / RFU ARHGAP8 /// PRR5-ARHGAP8 (11727945_x_at) / Fold change /veh ARHGAP8 /// PRR5-ARHGAP8 (11727945_x_at) / RFU KRTAP5-7 /// NADSYN1 (11734609_at) / Fold change /veh KRTAP5-7 /// NADSYN1 (11734609_at) / RFU RASL12 (11751679_a_at) / Fold change /veh RASL12 (11751679_a_at) / RFU CDKN2B (11736163_a_at) / Fold change /veh CDKN2B (11736163_a_at) / RFU PRF1 (11729649_at) / Fold change /veh PRF1 (11729649_at) / RFU, ZNF638 /// ZNF638-IT1 / Fold change vs veh, ZNF638 /// ZNF638-IT1 / RFU, PANK3 / Fold change vs veh, PANK3 / RFU, SH3YL1 / Fold change vs veh, SH3YL1 / RFU, ZEB2 / Fold change vs veh, ZEB2 / RFU, NRIP1 / Fold change vs veh, NRIP1 / RFU, PTTG1IP / Fold change vs veh, PTTG1IP / RFU, CAPN2 / Fold change vs veh, CAPN2 / RFU, MED14 / Fold change vs veh, MED14 / RFU, SNORA58 / Fold change vs veh, SNORA58 / RFU, C1orf63 / Fold change vs veh, C1orf63 / RFU, LRRFIP1 / Fold change vs veh, LRRFIP1 / RFU, NDUFAF7 / Fold change vs veh, NDUFAF7 / RFU, SLC12A2 / Fold change vs veh, SLC12A2 / RFU, IBTK / Fold change vs veh, IBTK / RFU, ESF1 / Fold change vs veh, ESF1 / Fold change vs veh, TMEM50B / RFU, TAOK1 / Fold change vs veh, TAOK1 / RFU, ACBD3 / Fold change vs veh, ACBD3 / RFU, TMA16 / Fold change vs veh, TMA16 / RFU, RWDD3 / Fold change vs veh, RWDD3 / RFU, BCAT1 / Fold change vs veh, BCAT1 / RFU, EDEM3 / Fold change vs veh, EDEM3 / RFU, TMEM33 / Fold change vs veh, TMEM33 / RFU, WDR75 / Fold change vs veh, WDR75 / RFU, AHCTF1 / Fold change vs veh, AHCTF1 / RFU, TFRC / Fold change vs veh, TFRC / RFU, ZDHHC17 / Fold change vs veh, ZDHHC17 / RFU, NOM1 / Fold change vs veh, NOM1 / RFU, ARL8B / Fold change vs veh, ARL8B / RFU, ZBTB11 / Fold change vs veh, ZBTB11 / RFU, TAMM41 / Fold change vs veh, TAMM41 / RFU, KIAA1704 /// LOC100996395 / Fold change vs veh, KIAA1704 /// LOC100996395 / RFU, ING1 / Fold change vs veh, ING1 / RFU, TRMT61B / Fold change vs veh, TRMT61B / RFU, FUBP3 / Fold change vs veh, FUBP3 / RFU, TP53 / Fold change vs veh, TP53 / RFU, TNKS2 / Fold change vs veh, TNKS2 / RFU, ZFP14 / Fold change vs veh, ZFP14 / RFU, ACTR2 / Fold change vs veh, ACTR2 / RFU, PPP3R1 / Fold change vs veh, PPP3R1 / RFU, PIK3R1 / Fold change vs veh, PIK3R1 / RFU, HNRNPA1 / Fold change vs veh, HNRNPA1 / RFU, RNF170 / Fold change vs veh, RNF170 / RFU, ZNF28 / Fold change vs veh, ZNF28 / RFU, RNGTT / Fold change vs veh, RNGTT / RFU, OGT / Fold change vs veh, OGT / RFU, BRD1 / Fold change vs veh, BRD1 / RFU, MARS / Fold change vs veh, MARS / RFU, ZNF655 / Fold change vs veh, ZNF655 / RFU, FAHD1 / Fold change vs veh, FAHD1 / RFU, BDP1 / Fold change vs veh, BDP1 / RFU, LRRCC1 / Fold change vs veh, LRRCC1 / RFU, ARID1A / Fold change vs veh, ARID1A / RFU, ZNF146 / Fold change vs veh, ZNF146 / RFU, ZNF330 / Fold change vs veh, ZNF330 / RFU, GPN3 / Fold change vs veh, GPN3 / RFU, C9orf123 / Fold change vs veh, C9orf123 / RFU, N4BP2L2 / Fold change vs veh, N4BP2L2 / RFU, ARFIP1 / Fold change vs veh, ARFIP1 / RFU, FAM179B / Fold change vs veh, FAM179B / RFU, BCL10 / Fold change vs veh, BCL10 / RFU, UHRF1BP1L / Fold change vs veh, UHRF1BP1L / RFU, BET1 / Fold change vs veh, BET1 / RFU, CNOT2 / Fold change vs veh, CNOT2 / RFU, ZNF268 / Fold change vs veh, ZNF268 / Fold change vs veh, ZNF507 / RFU, DGCR2 / Fold change vs veh, DGCR2 / RFU, WDSUB1 / Fold change vs veh, WDSUB1 / Fold change vs veh, HSP90B1 /// MIR3652 / RFU, ADSS / Fold change vs veh, ADSS / RFU, GK / Fold change vs veh, GK / RFU, ZNF148 / Fold change vs veh, ZNF148 / RFU, TAF9 / Fold change vs veh, TAF9 / RFU, SLC1A5 / Fold change vs veh, SLC1A5 / RFU, SLMO2 / Fold change vs veh, SLMO2 / RFU, ABCC4 / Fold change vs veh, ABCC4 / RFU, LOC101060439 /// RAP1B / Fold change vs veh, LOC101060439 /// RAP1B / RFU, RFX7 / Fold change vs veh, RFX7 / RFU, GTPBP10 / Fold change vs veh, GTPBP10 / RFU, CNEP1R1 / Fold change vs veh, CNEP1R1 / RFU, BIVM-ERCC5 /// ERCC5 / Fold change vs veh, BIVM-ERCC5 /// ERCC5 / RFU, ILF3 / Fold change vs veh, ILF3 / RFU 11762660_at / Fold change /veh 11762660_at / RFU VCAN (11757783_s_at) / Fold change /veh VCAN (11757783_s_at) / RFU DDX43 (11728927_at) / Fold change /veh DDX43 (11728927_at) / RFU KRT8 (11758188_x_at) / Fold change /veh KRT8 (11758188_x_at) / RFU NKD1 (11759106_at) / Fold change /veh NKD1 (11759106_at) / RFU SRD5A1 (11742802_a_at) / Fold change /veh SRD5A1 (11742802_a_at) / RFU TPSAB1 /// TPSB2 (11721975_s_at) / Fold change /veh TPSAB1 /// TPSB2 (11721975_s_at) / RFU GSTM3 (11746129_a_at) / Fold change /veh GSTM3 (11746129_a_at) / RFU IL23R (11737362_x_at) / Fold change /veh IL23R (11737362_x_at) / RFU TMEM51 (11727254_a_at) / Fold change /veh TMEM51 (11727254_a_at) / RFU PIWIL2 (11732686_x_at) / Fold change /veh PIWIL2 (11732686_x_at) / RFU ORM1 (11744905_x_at) / Fold change /veh ORM1 (11744905_x_at) / RFU CCDC152 (11743942_at) / Fold change /veh CCDC152 (11743942_at) / RFU ECM1 (11717891_a_at) / Fold change /veh ECM1 (11717891_a_at) / RFU IL23R (11748794_a_at) / Fold change /veh IL23R (11748794_a_at) / RFU TNFAIP8L3 (11732012_x_at) / Fold change /veh TNFAIP8L3 (11732012_x_at) / RFU MBOAT4 (11741988_at) / Fold change /veh MBOAT4 (11741988_at) / RFU 11764193_at / Fold change /veh 11764193_at / RFU TMEM53 (11763286_at) / Fold change /veh TMEM53 (11763286_at) / RFU MAGEB2 (11727129_at) / Fold change /veh MAGEB2 (11727129_at) / RFU TMEM200A (11744735_a_at) / Fold change /veh TMEM200A (11744735_a_at) / RFU CCDC152 (11751479_a_at) / Fold change /veh CCDC152 (11751479_a_at) / RFU FAM211A (11726209_a_at) / Fold change /veh FAM211A (11726209_a_at) / RFU RGS16 (11746705_a_at) / Fold change /veh RGS16 (11746705_a_at) / RFU VCAN (11755009_s_at) / Fold change /veh VCAN (11755009_s_at) / RFU RHOB (11743442_s_at) / Fold change /veh RHOB (11743442_s_at) / RFU RGS16 (11720943_a_at) / Fold change /veh RGS16 (11720943_a_at) / RFU RGS16 (11720944_at) / Fold change /veh RGS16 (11720944_at) / RFU, VPS4B / Fold change vs veh, VPS4B / RFU, CREB1 / Fold change vs veh, CREB1 / RFU, DNAJC13 / Fold change vs veh, DNAJC13 / RFU, GNAQ / Fold change vs veh, GNAQ / RFU, CDK5R1 / Fold change vs veh, CDK5R1 / RFU, ZRANB3 / Fold change vs veh, ZRANB3 / RFU, CUL4A / Fold change vs veh, CUL4A / RFU, CCNY / Fold change vs veh, CCNY / RFU, UFL1 / Fold change vs veh, UFL1 / RFU, COG3 / Fold change vs veh, COG3 / RFU, DIAPH2 / Fold change vs veh, DIAPH2 / RFU, SKA2 / Fold change vs veh, SKA2 / RFU, AFF3 / Fold change vs veh, AFF3 / RFU, LMF1 / Fold change vs veh, LMF1 / RFU, IPO11 / Fold change vs veh, IPO11 / RFU, DFFB / Fold change vs veh, DFFB / RFU, FOXP1 / Fold change vs veh, FOXP1 / RFU, CARD8 / Fold change vs veh, CARD8 / RFU, STRN3 / Fold change vs veh, STRN3 / RFU, ADK / Fold change vs veh, ADK / RFU, RASSF2 / Fold change vs veh, RASSF2 / RFU, WIPF1 / Fold change vs veh, WIPF1 / RFU, LARP1B / Fold change vs veh, LARP1B / RFU, RASA1 / Fold change vs veh, RASA1 / RFU, RB1 / Fold change vs veh, RB1 / RFU, PPFIA1 / Fold change vs veh, PPFIA1 / RFU, MAT2A / Fold change vs veh, MAT2A / RFU, CCT5 / Fold change vs veh, CCT5 / RFU, WDR92 / Fold change vs veh, WDR92 / RFU, CUX1 / Fold change vs veh, CUX1 / RFU, TTC7A / Fold change vs veh, TTC7A / RFU, TMEM135 / Fold change vs veh, TMEM135 / RFU, DEPTOR / Fold change vs veh, DEPTOR / RFU, CPM / Fold change vs veh, CPM / RFU, DNAJB6 / Fold change vs veh, DNAJB6 / RFU, CACNA2D3 / Fold change vs veh, CACNA2D3 / RFU, DTX4 / Fold change vs veh, DTX4 / RFU, TFCP2 / Fold change vs veh, TFCP2 / RFU, GMCL1 /// GMCL1P1 / Fold change vs veh, GMCL1 /// GMCL1P1 / RFU, AEBP2 / Fold change vs veh, AEBP2 / RFU, SNHG1 /// SNORD22 /// SNORD25 /// SNORD26 /// SNORD27 /// SNORD28 /// SNORD29 /// SNORD31 / Fold change vs veh, SNHG1 /// SNORD22 /// SNORD25 /// SNORD26 /// SNORD27 /// SNORD28 /// SNORD29 /// SNORD31 / Fold change (Aza/veh), C12orf56 (ProbeSet 11735607_a_at) / Fold change (ACY-1035/veh), C12orf56 (ProbeSet 11735607_a_at) / Fold change (Aza/veh), FGFR1OP (ProbeSet 11751329_s_at) / Fold change (ACY-1035/veh), FGFR1OP (ProbeSet 11751329_s_at) / Fold change (Aza/veh), VPS36 (ProbeSet 11739960_a_at) / Fold change (ACY-1035/veh), VPS36 (ProbeSet 11739960_a_at) / RFU SYPL1 (11715823_x_at) / Fold change /veh SYPL1 (11715823_x_at) / RFU IGFBP7 (11715501_s_at) / Fold change /veh IGFBP7 (11715501_s_at) / RFU REEP3 (11722064_at) / Fold change /veh REEP3 (11722064_at) / RFU IGLL1 (11728026_x_at) / Fold change /veh IGLL1 (11728026_x_at): dose or concentration left out as unconfirmed
Settings: MV-4-11 cells, 48 hours

## Nc1ccc(-c2cccs2)cc1NC(=O)c1ccc2c(c1)cc(C1CC1)n2CCN1CCOCC1 [ACY-1035]
  RFU CMKLR1 (11741424_a_at): 17.99 RFU
